Like-named read-outs stand apart in the source and are kept apart here.
Assays:
[1] = biological target: T1, HCV NS3/4A protease complex, BMS strain (UniProt P27958, species not given/STRAIN_BMS); assay: FRET peptide assay to monitor HCV NS3/4A proteolytic activity (BMS strain); assay type: biochemical, Hepatitis C virus (genotype 1a)
T1 construct: DNA encoding the recombinant HCV NS3/4A protease complex (amino acids 1027 to 1711) for these strains [H77 and J4L6S]; fused on or other part: For the H77 and J4L6S constructs, a three-lysine solubilising tail at the NS4A C-terminus and a Ni-NTA-purifiable tag from pET21b
Text: Generation of Recombinant HCV NS3/4A Protease Complex
HCV NS3 protease complexes, derived from the BMS strain, H77 strain or J4L6S strain, were generated, as described below. These purified recombinant proteins were generated for use in a homogeneous assay (see below) to provide an indication of how effective compounds of the present disclosure would be in inhibiting HCV NS3 proteolytic activity.
Serum from an HCV-infected patient was obtained from Dr. T. Wright, San Francisco Hospital. An engineered full-length cDNA (compliment deoxyribonucleic acid) template of the HCV genome (BMS strain) was constructed from DNA fragments obtained by reverse transcription-PCR (RT-PCR) of serum RNA (ribonucleic acid) and using primers selected on the basis of homology between other genotype 1a strains. From the determination of the entire genome sequence, a genotype 1a was assigned to the HCV isolate according to the classification of Simmonds et al. (See P Simmonds, K A Rose, S Graham, S W Chan, F McOmish, B C Dow, E A Follett, P L Yap and H Marsden, J. Clin. Microbiol., 31(6), 1493-1503 (1993)). […] The infectious clones, H77 (1a genotype) and J4L6S (1b genotype) were obtained from R. Purcell (NIH) and the sequences are published in Genbank (AAB67036, see Yanagi, M., Purcell, R. H., Emerson, S. U. and Bukh, J. Proc. Natl. Acad. Sci. U.S.A. 94(16), 8738-8743 (1997); AF054247, see Yanagi, M., St Claire, M., Shapiro, M., Emerson, S. U., Purcell, R. H. and Bukh, J, Virology 244 (1), 161-172. (1998)).
The H77 and J4L6S strains were used for production of recombinant NS3/4A protease complexes. DNA encoding the recombinant HCV NS3/4A protease complex (amino acids 1027 to 1711) for these strains were manipulated as described by P. Gallinari et al. (see Gallinari P, Paolini C, Brennan D, Nardi C, Steinkuhler C, De Francesco R. Biochemistry. 38(17):5620-32, (1999)). Briefly, a three-lysine solubilizing tail was added at the 3′-end of the NS4A coding region. The cysteine in the P1 position of the NS4A-NS4B cleavage site (amino acid 1711) was changed to a glycine to avoid the proteolytic cleavage of the lysine tag. Furthermore, a cysteine to serine mutation was introduced by PCR at amino acid position 1454 to prevent the autolytic cleavage in the NS3 helicase domain. The variant DNA fragment was cloned in the pET21b bacterial expression vector (Novagen) and the NS3/4A complex was expressed in Escherichia coli strain BL21 (DE3) (Invitrogen) following the protocol described by P. Gallinari et al. (see Gallinari P, Brennan D, Nardi C, Brunetti M, Tomei L, Steinkuhler C, De Francesco R., J. Virol. 72(8):6758-69 (1998)) with modifications. Briefly, the NS3/4A protease complex expression was induced with 0.5 millimolar (mM) Isopropyl β-D-1-thiogalactopyranoside (IPTG) for 22 hours (h) at 20° C. A typical fermentation (1 Liter (L)) yielded approximately 10 grams (g) of wet cell paste. The cells were resuspended in lysis buffer (10 mL/g) consisting of 25 mM N-(2-Hydroxyethyl)piperazine-N′-(2-Ethane Sulfonic acid) (HEPES), pH 7.5, 20% glycerol, 500 mM Sodium Chloride (NaCl), 0.5% Triton X-100, 1 microgram/milliliter (“μg/mL”) lysozyme, 5 mM Magnesium Chloride (MgCl2), 1 μg/mL DnaseI, 5 mM β-Mercaptoethanol (βME), Protease inhibitor—Ethylenediamine Tetraacetic acid (EDTA) free (Roche), homogenized and incubated for 20 minutes (min) at 4° C. The homogenate was sonicated and clarified by ultra-centrifugation at 235000 g for 1 h at 4° C. Imidazole was added to the supernatant to a final concentration of 15 mM and the pH adjusted to 8.0. The crude protein extract was loaded on a Nickel—Nitrilotriacetic acid (Ni-NTA) column pre-equilibrated with buffer B (25 mM HEPES, pH 8.0, 20% glycerol, 500 mM NaCl, 0.5% Triton X-100, 15 mM imidazole, 5 mM βME). The sample was loaded at a flow rate of 1 mL/min. The column was washed with 15 column volumes of buffer C (same as buffer B except with 0.2% Triton X-100). […]

[2] = system: HCV replicon in HUH-7 cells; assay: HCV replicon FRET assay; assay type: cell-based, Hepatitis C virus (strain 1b); conditions: Hepatitis C virus
Text: Generation of HCV Replicon
An HCV replicon whole cell system was established as described by Lohmann V, Korner F, Koch J, Herian U, Theilmann L, Bartenschlager R., Science 285(5424):110-3 (1999). This system enabled us to evaluate the effects of our HCV Protease compounds on HCV RNA replication. Briefly, using the HCV strain 1b sequence described in the Lohmann paper (Assession number:AJ238799), an HCV cDNA was synthesized by Operon Technologies, Inc. (Alameda, Calif.), and the full-length replicon was then assembled in plasmid pGem9zf(+) (Promega, Madison, Wis.) using standard molecular biology techniques. The replicon consists of (i) the HCV 5′ UTR fused to the first 12 amino acids of the capsid protein, (ii) the neomycin phosphotransferase gene (neo), (iii) the IRES from encephalomyocarditis virus (EMCV), and (iv) HCV NS3 to NS5B genes and the HCV 3′ UTR. Plasmid DNAs were linearized with ScaI and RNA transcripts were synthesized in vitro using the T7 MegaScript transcription kit (Ambion, Austin, Tex.) according to manufacturer's directions. In vitro transcripts of the cDNA were transfected into the human hepatoma cell line, HUH-7. […] Resulting cell lines were characterized for positive and negative strand RNA production and protein production over time.
The HCV replicon FRET assay was developed to monitor the inhibitory effects of compounds described in the disclosure on HCV viral replication. HUH-7 cells, constitutively expressing the HCV replicon, were grown in Dulbecco's Modified Eagle Media (DMEM) (Gibco-BRL) containing 10% Fetal calf serum (FCS) (Sigma) and 1 mg/mL G418 (Gibco-BRL). Cells were seeded the night before (1.5×10^4 cells/well) in 96-well tissue-culture sterile plates. Compound and no compound controls were prepared in DMEM containing 4% FCS, 1:100 Penicillin/Streptomysin (Gibco-BRL), 1:100 L-glutamine and 5% DMSO in the dilution plate (0.5% DMSO final concentration in the assay). Compound/DMSO mixes were added to the cells and incubated for 4 days at 37° C. After 4 days, cells were first assessed for cytotoxicity using alamar Blue (Trek Diagnotstic Systems) for a CC50 reading. The toxicity of compound (CC50) was determined by adding 1/10th volume of alamar Blue to the media incubating the cells. After 4 h, the fluorescence signal from each well was read, with an excitation wavelength at 530 nm and an emission wavelength of 580 nm, using the Cytofluor Series 4000 (Perspective Biosystems). Plates were then rinsed thoroughly with Phosphate-Buffered Saline (PBS) (3 times 150 μl).

[3] = NS3/4A BMS strain, enzyme assay; read-out: IC 50 Range
[4] = HCV replicon cell assay, HUH-7, read-out: EC50 Range
[5] = read-out: IC 50 Range; NS3/4A BMS strain, enzyme assay

T1 sequence (P27958 1027-1657, stated change not applied, one chain of several): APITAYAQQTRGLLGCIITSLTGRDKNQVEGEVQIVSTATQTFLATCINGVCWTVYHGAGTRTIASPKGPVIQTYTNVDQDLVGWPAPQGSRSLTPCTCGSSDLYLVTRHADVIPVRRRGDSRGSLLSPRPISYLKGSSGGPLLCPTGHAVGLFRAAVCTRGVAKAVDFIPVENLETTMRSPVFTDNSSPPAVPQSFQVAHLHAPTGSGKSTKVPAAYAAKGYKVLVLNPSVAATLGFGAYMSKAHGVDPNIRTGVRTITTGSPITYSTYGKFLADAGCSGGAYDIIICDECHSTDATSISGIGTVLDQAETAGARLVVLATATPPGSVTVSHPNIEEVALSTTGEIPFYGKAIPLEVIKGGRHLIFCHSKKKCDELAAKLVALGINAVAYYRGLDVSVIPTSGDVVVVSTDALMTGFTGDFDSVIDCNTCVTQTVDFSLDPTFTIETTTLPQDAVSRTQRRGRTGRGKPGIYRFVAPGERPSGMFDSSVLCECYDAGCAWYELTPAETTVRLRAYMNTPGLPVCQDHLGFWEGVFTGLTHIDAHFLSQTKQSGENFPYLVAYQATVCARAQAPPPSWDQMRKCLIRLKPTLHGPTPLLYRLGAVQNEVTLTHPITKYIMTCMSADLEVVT

| SMILES | IC50 [1, 3] | EC50 [2, 4] | IC50 [1, 5] | EC50 ([2]; Huh-7, read-out: EC50 Range) |
| --- | --- | --- | --- | --- |
| C=CC1CC1(NC(=O)[C@@H]1C[C@@H](NC(=O)c2c(OCC)ccc3ccccc23)CN1C(=O)[C@@H](NC(=O)CC1CC1)C(C)(C)C)C(=O)NS(=O)(=O)C1CC1 (some centres unmarked) [Compound 37] | 0.15 to 15 µM | > 15 µM |  |  |
| C=CC1CC1(NC(=O)[C@@H]1C[C@@H](NC(=O)c2ccccc2-c2ccccc2)CN1C(=O)[C@@H](NC(=O)CC1CC1)C(C)(C)C)C(=O)NS(=O)(=O)C1CC1 (some centres unmarked) [Compound 38] | 0.15 to 15 µM | > 15 µM |  |  |
| C=CC1CC1(NC(=O)[C@@H]1C[C@@H](NC(=O)c2coc3ccccc3c2=O)CN1C(=O)[C@@H](NC(=O)CC1CC1)C(C)(C)C)C(=O)NS(=O)(=O)C1CC1 (some centres unmarked) [Compound 39] | < 0.15 µM | 0.15 to 15 µM |  |  |
| C=CC1CC1(NC(=O)[C@@H]1C[C@@H](NC(=O)c2cn(CC)c3cc4c(cc3c2=O)OCO4)CN1C(=O)[C@@H](NC(=O)CC1CC1)C(C)(C)C)C(=O)NS(=O)(=O)C1CC1 (some centres unmarked) [Compound 40] |  | > 15 µM | < 0.15 µM |  |
| C=CC1CC1(NC(=O)[C@@H]1C[C@@H](NC(=O)c2ccc3cnccc3n2)CN1C(=O)[C@@H](NC(=O)CC1CC1)C(C)(C)C)C(=O)NS(=O)(=O)C1CC1 (some centres unmarked) [Compound 41] | < 0.15 µM | > 15 µM |  |  |
| C=CC1CC1(NC(=O)[C@@H]1C[C@@H](NC(=O)Nc2cccc3ccccc23)CN1C(=O)[C@@H](NC(=O)OC(C)(C)C)C(C)(C)C)C(=O)NS(=O)(=O)C1CC1 (some centres unmarked) [Compound 43] |  | > 15 µM | < 0.15 µM |  |
| C=CC1CC1(NC(=O)[C@@H]1C[C@@H](NC(=O)NCc2ccccc2)CN1C(=O)[C@@H](NC(=O)OC(C)(C)C)C(C)(C)C)C(=O)NS(=O)(=O)C1CC1 (some centres unmarked) [Compound 44] | 0.15 to 15 µM | > 15 µM |  |  |
| C=CC1CC1(NC(=O)[C@@H]1C[C@@H](NC(=S)NCc2ccccc2)CN1C(=O)[C@@H](NC(=O)OC(C)(C)C)C(C)(C)C)C(=O)NS(=O)(=O)C1CC1 (some centres unmarked) [Compound 45] |  | > 15 µM | 0.15 to 15 µM |  |
| C=CC1CC1(NC(=O)[C@@H]1C[C@@H](NCc2ccnc3ccccc23)CN1C(=O)[C@@H](NC(=O)OC(C)(C)C)C(C)(C)C)C(=O)NS(=O)(=O)C1CC1 (some centres unmarked) [Compound 47] | < 0.15 µM | > 15 µM |  |  |
| C=CC1CC1(NC(=O)[C@@H]1C[C@@H](NS(=O)(=O)c2cccc3ccccc23)CN1C(=O)[C@@H](NC(=O)OC(C)(C)C)C(C)(C)C)C(=O)NS(=O)(=O)C1CC1 (some centres unmarked) [Compound 48] | 0.15 to 15 µM | > 15 µM |  |  |
| C=CC1CC1(NC(=O)[C@@H]1C[C@@H](NS(=O)(=O)c2cccc3c(N(C)C)cccc23)CN1C(=O)[C@@H](NC(=O)OC(C)(C)C)C(C)(C)C)C(=O)NS(=O)(=O)C1CC1 (some centres unmarked) [Compound 49] | 0.15 to 15 µM | > 15 µM |  |  |
| C=CC1CC1(NC(=O)[C@@H]1C[C@@H](NC(=O)n2ccc3cccnc32)CN1C(=O)[C@@H](NC(=O)CC1CC1)C(C)(C)C)C(=O)NS(=O)(=O)C1CC1 (some centres unmarked) [Compound 50] | < 0.15 µM | 0.15 to 15 µM |  |  |
| C=CC1CC1(NC(=O)[C@@H]1C[C@@H](NC(=O)n2ccc3ccccc32)CN1C(=O)[C@@H](NC(=O)CC1CC1)C(C)(C)C)C(=O)NS(=O)(=O)C1CC1 (some centres unmarked) [Compound 51] |  |  | < 0.15 µM | 0.15 to 15 µM |
| C=CC1CC1(NC(=O)[C@@H]1C[C@@H](NC(=O)OC2=NCc3ccccc32)CN1C(=O)[C@@H](NC(=O)CC1CC1)C(C)(C)C)C(=O)NS(=O)(=O)C1CC1 (some centres unmarked) [Compound 52] |  | 0.15 to 15 µM | < 0.15 µM |  |
| C=CC1CC1(NC(=O)[C@@H]1C[C@@H](NC(=O)n2c(=O)oc3ccccc32)CN1C(=O)[C@@H](NC(=O)CC1CC1)C(C)(C)C)C(=O)NS(=O)(=O)C1CC1 (some centres unmarked) [Compound 53] |  | > 15 µM | < 0.15 µM |  |
| C=CC1CC1(NC(=O)[C@@H]1C[C@@H](N2C(=O)c3ccccc3C2=O)CN1C(=O)[C@@H](NC(=O)CC1CC1)C(C)(C)C)C(=O)NS(=O)(=O)C1CC1 (some centres unmarked) [Compound 58] |  | > 15 µM | 0.15 to 15 µM |  |

— patent publication US7601686B2, “Hepatitis C virus inhibitors” (Bristol-Myers Squibb Company, priority 2005, dated 2009)
